Legend:
Format in all cases: functional
Mus musculus [1] = experiment: Evaluated for number of cures against Plasmodium berghei in mice (Mus musculus) (surviving 60 days) at dose 320 mg/kg
Mus musculus [2] = experiment: Evaluated for number of cures against Plasmodium berghei in mice (Mus musculus) (surviving 60 days) at dose 10 mg/kg
Plasmodium cynomolgi [3] = experiment: Cures in Plasmodium cynomolgi infected Rhesus monkeys (Macaca mulatta) at 1.0 mg/kg dose; Cures 2 of 2
Mus musculus [4] = experiment: Evaluated for number of cures against Plasmodium berghei in mice (Mus musculus) (surviving 60 days) at dose 80 mg/kg
Mus musculus [5] = experiment: Evaluated for number of cures against Plasmodium berghei in mice (Mus musculus) (surviving 60 days) at dose 160 mg/kg
Plasmodium cynomolgi [6] = experiment: Cures in Plasmodium cynomolgi infected Rhesus monkeys (Macaca mulatta) at 0.316 mg/kg dose; Cured 2 of 2
Mus musculus [7] = experiment: Evaluated for number of cures against Plasmodium berghei in mice (Mus musculus) (surviving 60 days) at dose 5 mg/kg
Mus musculus [8] = experiment: Evaluated for number of cures against Plasmodium berghei in mice (Mus musculus) (surviving 60 days) at dose 40 mg/kg
Mus musculus [9] = experiment: Evaluated for number of cures against Plasmodium berghei in mice (Mus musculus) (surviving 60 days) at dose 20 mg/kg
Mus musculus [10] = experiment: Evaluated for number of toxic deaths occurring on day 2-5 after infection with Plasmodium berghei in mice (Mus musculus) at dose 640 mg/kg
Plasmodium cynomolgi [11] = experiment: Cures in Plasmodium cynomolgi infected Rhesus monkeys (Macaca mulatta) at 0.1 mg/kg dose; Cured 0 of 1
Mus musculus [12] = experiment: Evaluated for number of cures against Plasmodium berghei in mice (Mus musculus) (surviving 60 days) at dose 640 mg/kg
Mus musculus [13] = experiment: Evaluated for number of cures against Plasmodium berghei yoelii in rodents at subcutaneous dose 160 mg/kg; 5/15
Plasmodium cynomolgi [14] = experiment: Number of relapses in Plasmodium cynomolgi infected Rhesus monkeys (Macaca mulatta) at 1.0 mg/kg dose
Mus musculus [15] = experiment: Evaluated for the change in mean survival time over controls against Plasmodium berghei in mice (Mus musculus) at dose 160 mg/kg
Plasmodium cynomolgi [16] = experiment: Cures against Plasmodium cynomolgi infected Rhesus monkeys (Macaca mulatta) at 1.0 mg/kg; cured 0 of 2
Mus musculus [17] = experiment: Evaluated for number of cures against Plasmodium berghei yoelii in mice (Mus musculus) at subcutaneous dose 40 mg/kg; 1/15
Mus musculus [18] = experiment: Evaluated for the change in mean survival time over controls against Plasmodium berghei in mice (Mus musculus) at dose 80 mg/kg
Mus musculus [19] = experiment: Evaluated for the change in mean survival time over controls against Plasmodium berghei in mice (Mus musculus) at dose 320 mg/kg
Mus musculus [20] = experiment: Evaluated for number of toxic deaths against Plasmodium berghei yoelii in mice (Mus musculus) at subcutaneous dose of 40 mg/kg
Mus musculus [21] = experiment: Evaluated for the change in mean survival time over controls against Plasmodium berghei in mice (Mus musculus) at dose 40 mg/kg
Mus musculus [22] = experiment: Evaluated for number of toxic deaths against Plasmodium berghei yoelii in rodents at subcutaneous dose of 160 mg/kg
Mus musculus [23] = experiment: Evaluated for number of cures against Plasmodium berghei yoelii in mice (Mus musculus) at peroral dose 40 mg/kg; 0/5; settings: route oral
Plasmodium cynomolgi [24] = experiment: Relapses in Plasmodium cynomolgi infected Rhesus monkeys (Macaca mulatta) at 0.1 mg/kg dose
Mus musculus [25] = experiment: Evaluated for number of cures against Plasmodium berghei yoelii in rodents at peroral dose 10 mg/kg; 0/5; settings: route oral
Mus musculus [26] = experiment: Evaluated for the change in mean survival time over controls against Plasmodium berghei in mice (Mus musculus) at dose 640 mg/kg
Mus musculus [27] = experiment: Evaluated for number of cures against Plasmodium berghei yoelii in mice (Mus musculus) at subcutaneous dose 10 mg/kg; 0/15
Mus musculus [28] = experiment: Evaluated for number of cures against Plasmodium berghei yoelii in mice (Mus musculus) at peroral dose 160 mg/kg; Number of tested 5; settings: route oral
Plasmodium cynomolgi [29] = experiment: Cures in Plasmodium cynomolgi infected Rhesus monkeys (Macaca mulatta) at 0.1 mg/kg dose; Cured 0 of 2
Mus musculus [30] = experiment: Evaluated for number of cures against Plasmodium berghei yoelii in rodents at peroral dose 40 mg/kg; 7/20; settings: route oral
Mus musculus [31] = experiment: Evaluated for number of cures against Plasmodium berghei yoelii in mice (Mus musculus) at peroral dose 160 mg/kg; 19/20; settings: route oral
Mus musculus [32] = experiment: Evaluated for number of cures against Plasmodium berghei yoelii in rodents at subcutaneous dose 2.5 mg/kg; 0/5
Mus musculus [33] = experiment: Evaluated for the change in mean survival time over controls against Plasmodium berghei in mice (Mus musculus) at dose 20 mg/kg
Mus musculus [34] = experiment: Evaluated for number of cures against Plasmodium berghei yoelii in rodents at peroral dose 2.5 mg/kg; 0/5; settings: route oral
Mus musculus [35] = experiment: Evaluated for number of cures against Plasmodium berghei yoelii in rodents at subcutaneous dose 160 mg/kg; 8/30
Mus musculus [36] = experiment: Evaluated for number of cures against Plasmodium berghei yoelii in rodents at peroral dose 10 mg/kg; 2/20; settings: route oral
Plasmodium cynomolgi [37] = experiment: Number of relapses in Plasmodium cynomolgi infected Rhesus monkeys (Macaca mulatta) at 0.316 mg/kg dose
Plasmodium cynomolgi [38] = experiment: Cures against Plasmodium cynomolgi infected Rhesus monkeys (Macaca mulatta) at 0.316 mg/kg dose; cured 0 of 2
Mus musculus [39] = experiment: Evaluated for number of cures against Plasmodium berghei yoelii in rodents at subcutaneous dose 10 mg/kg; 5/30
Plasmodium cynomolgi [40] = experiment: Cures in Plasmodium cynomolgi infected Rhesus monkeys (Macaca mulatta) at 1.0 mg/kg dose; Cured 1 of 2
Mus musculus [41] = experiment: Evaluated for number of cures against Plasmodium berghei yoelii in rodents at subcutaneous dose 40 mg/kg; 7/30
Mus musculus [42] = experiment: Evaluated for number of toxic deaths occurring on day 2-5 after infection with Plasmodium berghei in mice (Mus musculus) at dose 320 mg/kg
Mus musculus [43] = experiment: Evaluated for number of toxic deaths occurring on day 2-5 after infection with Plasmodium berghei in mice (Mus musculus) at dose 160 mg/kg

SMILES	No. of cures (Mus musculus [1])	No. of deaths (Mus musculus [10])	No. of cures (Mus musculus [12])	No. of relapses (Plasmodium cynomolgi [14])	Change in MST (Mus musculus [15])	Change in MST (Mus musculus [18])	Change in MST (Mus musculus [19])	No. of deaths (Mus musculus [20])	Change in MST (Mus musculus [21])	No. of deaths (Mus musculus [22])	No. of relapses (Plasmodium cynomolgi [24])	Change in MST (Mus musculus [26])	No. of cures (Plasmodium cynomolgi [29])	No. of cures (Plasmodium cynomolgi [38])	No. of cures (Plasmodium cynomolgi [40])	further results
COc1cc(NC(C)CCCN)c2nccc(C)c2c1Oc1cccc(C(F)(F)F)c1 (configuration not stated)	5	4	1													No. of cures (Mus musculus [2]): 3; No. of cures (Plasmodium cynomolgi [3]): 2; No. of cures (Mus musculus [4]): 5; No. of cures (Mus musculus [5]): 5; No. of cures (Plasmodium cynomolgi [6]): 2; No. of cures (Mus musculus [7]): 1; No. of cures (Mus musculus [8]): 5; No. of cures (Mus musculus [9]): 5; No. of cures (Plasmodium cynomolgi [11]): 0
COc1cc(NCC(C)SCCN)c2nccc(C)c2c1Oc1cccc(C(F)(F)F)c1 (configuration not stated)	1			7	4.5	1.5	6.5	1	0.5	1	7	9.7	0			No. of cures (Mus musculus [13]): 5; No. of cures (Plasmodium cynomolgi [16]): 0; No. of cures (Mus musculus [17]): 1; No. of cures (Mus musculus [23]): 0; No. of cures (Mus musculus [25]): 0; No. of cures (Mus musculus [27]): 0; No. of cures (Mus musculus [28]): 0
COc1cc(NC(C)CSCCN)c2nccc(C)c2c1Oc1cccc(C(F)(F)F)c1 (configuration not stated)	1	1	2	18	6.8	6.6	9.6	2	2	3	8	12.3	0	0	1	No. of cures (Mus musculus [30]): 7; No. of cures (Mus musculus [31]): 19; No. of cures (Mus musculus [32]): 0; Change in MST (Mus musculus [33]): 3; No. of cures (Mus musculus [34]): 0; No. of cures (Mus musculus [35]): 8; No. of cures (Mus musculus [36]): 2; No. of relapses (Plasmodium cynomolgi [37]): 28; No. of cures (Mus musculus [39]): 5; No. of cures (Mus musculus [41]): 7
COc1cc(NC(C)CCCN)c2ncccc2c1 (configuration not stated) [PRIMAQUINE]		5				9							0	0	1	No. of deaths (Mus musculus [42]): 5; No. of deaths (Mus musculus [43]): 2
